Experimental data reported in article PMC8313282 (Microbial Biotechnology, 2021).

Target: T1, YHR112C (Saccharomyces cerevisiae, UniProt P38716)
T1 sequence (P38716 1-378): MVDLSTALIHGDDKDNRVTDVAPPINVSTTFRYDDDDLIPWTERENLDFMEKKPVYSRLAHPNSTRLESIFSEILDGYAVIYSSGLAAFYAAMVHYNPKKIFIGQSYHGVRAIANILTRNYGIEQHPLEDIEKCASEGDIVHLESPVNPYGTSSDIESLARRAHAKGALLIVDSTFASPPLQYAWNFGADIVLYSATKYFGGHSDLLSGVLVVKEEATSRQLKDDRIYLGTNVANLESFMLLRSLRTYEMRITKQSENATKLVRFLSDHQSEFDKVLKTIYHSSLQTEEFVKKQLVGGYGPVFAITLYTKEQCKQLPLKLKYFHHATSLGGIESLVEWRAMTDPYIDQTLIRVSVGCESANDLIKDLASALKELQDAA
Assay: HPLC of L-Met depletion and alpha-ketobutyrate
Assay type: biochemical
Conditions: 50 mM Tris-HCl pH 8.0; 20 mM L-Met; 5 μM PLP; 30°C; 1 h; weak activity

## CSCC[C@H](N)C(=O)O [L‐Met]
  HPLC of L-Met depletion and alpha-ketobutyrate: while weak changes were observed for YHR112C
